PubChem BioAssay (NCI)
Where “and” joins values, the source holds several entries; their conditions need not be identical. Identical values can stand only once.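 Assay format: 96-well plates, 48-hour exposure. GI50 is the concentration that inhibits growth by half. TGI denotes the concentration required for complete inhibition of growth.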

Assays:
Assay in all cases: DTP human tumour cell line panel, 48 h
BT-549 breast = tested on: BT-549 breast
NCI/ADR-RES ovarian = tested on: NCI/ADR-RES ovarian
T-47D breast = tested on: T-47D breast
DLD-1 colon = tested on: DLD-1 colon
M19-MEL melanoma = tested on: M19-MEL melanoma
XF 498 CNS = tested on: XF 498 CNS
SNB-78 CNS = tested on: SNB-78 CNS
MDA-N = tested on: MDA-N
RXF-631 renal = tested on: RXF-631 renal

Row | Compound | GI50 (BT-549 breast) | TGI (BT-549 breast) | GI50 (NCI/ADR-RES ovarian) | TGI (NCI/ADR-RES ovarian) | GI50 (T-47D breast) | TGI (T-47D breast) | other results
1 | CC(C)(C)n1cc(-c2ccnc(NCCNS(=O)(=O)c3ccc(Br)cc3)c2)c(-c2cccc(O)c2)n1 | 1640 nM | 3.2 µM | 2130 nM | 4.99 µM | 1.65 µM | 5.44 µM | –
2 | C/C(=N\NS(=O)(=O)c1ccc(C)cc1)c1ccc[n+]([O-])n1 | – | – | – | – | – | – | TGI (DLD-1 colon): > 100 µM; TGI (M19-MEL melanoma): > 100 µM; TGI (XF 498 CNS): > 100 µM
3 | CC(C)OP(=O)(OC(C)C)C(N(C)C)P(=O)(OC(C)C)OC(C)C.[Cl][Sn]([Cl])([Cl])[c]1ccccc1 | – | – | – | – | – | – | GI50 (DLD-1 colon): 2890 nM; TGI (DLD-1 colon): > 100 µM; GI50 (M19-MEL melanoma): 2610 nM; TGI (M19-MEL melanoma): 6.79 µM; GI50 (SNB-78 CNS): 8.01 µM; TGI (SNB-78 CNS): > 100 µM
4 | O=C1C=C(Nc2cccc(Br)c2)c2ccccc2C1=O | 4580 nM | 33.9 µM | 10800 nM | 51.6 µM | – | – | –
5 | Cc1c(C(C)C)cc(OCCO)cc1C(C)C | – | > 100 µM | – | > 100 µM | – | > 100 µM | TGI (MDA-N): > 100 µM
6 | c1ccc(SCCCC(Sc2ccccc2)Sc2ccccc2)cc1 | – | – | – | – | – | – | TGI (DLD-1 colon): > 100 µM; TGI (M19-MEL melanoma): > 100 µM; TGI (SNB-78 CNS): > 100 µM; TGI (XF 498 CNS): > 100 µM
7 | COc1ccc(C[C@H]2C[C@@H](O)[C@@H](C)C/C=C/Cc3cccc(O)c3C(=O)O2)cn1 | 20700 nM | 48.8 µM | 19100 nM | 48.8 µM | 33.1 µM | > 100 µM | –
8 | O=C(Oc1c(I)ccccc1=O)c1ccc([N+](=O)[O-])cc1 | – | 41.8 µM | – | > 100 µM | – | 1.33 µM | –
9 | COc1cc2c3c(c1OC)-c1ccccc1C(C(OC(C)=O)c1ccccc1)C3N(C)CC2 (centres undefined) | – | – | – | – | – | – | TGI (DLD-1 colon): 91 µM; TGI (M19-MEL melanoma): > 100 µM; TGI (SNB-78 CNS): > 100 µM
10 | Cc1ccc([P+](Cc2ccc([N+](=O)[O-])cc2)(c2ccc(C)cc2)c2ccc(C)cc2)cc1 | 2680 nM | 8.87 µM | 68300 nM | > 100 µM | – | – | –
11 | CC1=CC2=C(C)C3(CC3)[C@@](C)(O)C(=O)C2=C1 | – | – | – | – | – | – | TGI (DLD-1 colon): > 0.935 µM; TGI (M19-MEL melanoma): 0.732 µM; TGI (SNB-78 CNS): > 0.631 µM; TGI (XF 498 CNS): 0.341 µM
12 | COC(=O)[C@H](Cc1ccccc1)NC(=O)c1csc([C@@H](C[C@H](C(C)C)N(C)C(=O)[C@@H](NC(=O)[C@H]2CCCCN2C)C2CC2)OC(C)=O)n1 | 34.9 nM | 0.556 µM | 2050 nM | > 25 µM | > 25 µM | > 25 µM | –
13 | Nc1ncnc2occ(-c3ccc(NC(=O)Nc4cc(C(F)(F)F)cc(C(F)(F)F)c4)cc3)c12 | 2660 nM | 5.77 µM | 3440 nM | 9.07 µM | 3.27 µM | 7.54 µM | –
14 | Oc1cccc(-c2nc3ccccc3s2)c1 | – | > 100 µM | – | 68.8 µM | – | 56.8 µM | TGI (MDA-N): 98.7 µM
15 | CC1Cc2c(N(C)C)ncnc2N(C)c2ccc(Cl)cc21 (centres undefined) | 6630 nM | 32.1 µM | 2400 nM | 23.9 µM | 6.56 µM | > 100 µM | –
16 | O=C(/C=C/N1CCN(c2cccc(C(F)(F)F)c2)CC1)c1ccc(Cl)cc1Cl | 20500 nM | 40.3 µM | 21700 nM | 50.8 µM | 82.8 µM | > 100 µM | –

Row | Compound | GI50 (BT-549 breast) | TGI (BT-549 breast) | GI50 (NCI/ADR-RES ovarian) | TGI (NCI/ADR-RES ovarian) | GI50 (T-47D breast) | TGI (T-47D breast) | other results
17 | Clc1ccc2c(Cl)ncnc2c1 | – | – | – | – | – | – | TGI (DLD-1 colon): > 100 µM; TGI (M19-MEL melanoma): > 100 µM; TGI (XF 498 CNS): > 100 µM
18 | COc1ccc2cccc(C(=N)c3ccc(C)c4c3CCC4)c2c1 | – | – | – | – | – | – | TGI (M19-MEL melanoma): 21.5 µM; TGI (RXF-631 renal): 4.37 µM
19 | CCOP(=O)(OCC)/C(C#N)=C\c1cccc2ccccc12 | – | > 100 µM | – | > 100 µM | – | > 100 µM | TGI (M19-MEL melanoma): > 100 µM; TGI (MDA-N): > 100 µM; TGI (SNB-78 CNS): > 100 µM
20 | CN1C(=O)c2cc(Cl)nc3c(NC(=O)c4cccc(Cl)c4)c(Cl)c(NC(=O)c4cccc(Cl)c4)c1c23 | 1640 nM | 3.19 µM | 3380 nM | 17.3 µM | 1.77 µM | 4.32 µM | –
21 | Cn1c(=O)n(-c2ccc(C(C)(C)C#N)cc2)c2c3cc(-c4cnc5ccccc5c4)ccc3ncc21 | 4.93 nM and < 10 nM | – | 21.2 nM and 8.49 nM and 19.7 nM | > 100 µM | < 0.01 µM and 0.0141 µM | 0.0488 µM and 0.0817 µM | –
22 | c1ccc2c(c1)nc(NCCN1CCNCC1)c1c3ccccc3[nH]c21 | 1530 nM | 4.04 µM | 1520 nM | 7.63 µM | 0.903 µM | 3.83 µM | –
23 | COc1ccc2c(c1O)[C@@]13C=C(O)C(=O)C=C1[C@@H](C2)N(C)CC3 | – | > 100 µM | – | > 100 µM | – | > 100 µM | TGI (MDA-N): > 100 µM
24 | COc1cc[nH]c1/C=C1\C(=O)Nc2ccc(F)c(C#CC3(O)CCOCC3)c21 | 556 nM | 1.37 µM | 885 nM | 8.42 µM | 1.1 µM | 16 µM | –
25 | CC[C@]12C=CCN3CC[C@]4(C(=C(C(=O)OC)C1)Nc1cc(O)ccc14)[C@@H]32 | 20600 nM | 41.9 µM | 14400 nM | 33.6 µM | 22.4 µM | 87.7 µM | –
26 | COc1cc(C2C3=C(COC3=O)N(CCO)c3cc4c(cc32)CCC4)cc(OC)c1O (centres undefined) | 680 nM | > 9.16 µM | 2450 nM | > 21 µM | 0.141 µM | > 32.5 µM | –
27 | O=C1[C@H]2C(c3ccccc3)=NN(C(=O)c3ccccc3)[C@H]2C(=O)N1c1ccccc1 | – | – | – | – | – | – | TGI (DLD-1 colon): > 100 µM
28 | COc1cc2ccn3c4cc(OC)c(OC)cc4cc3c2cc1OC | – | – | – | – | – | – | TGI (DLD-1 colon): > 100 µM; TGI (M19-MEL melanoma): > 100 µM; TGI (SNB-78 CNS): > 100 µM; TGI (XF 498 CNS): > 100 µM
29 | NC(Cc1nn[nH]n1)C(=O)O (centres undefined) | – | > 100 µM | – | > 100 µM | – | > 100 µM | TGI (MDA-N): > 100 µM
30 | CCOC(=O)c1[nH]c2c(c1C)-c1[nH]c(=O)c(S(=O)(=O)c3ccccc3)cc1SC2 | 36500 nM | > 100 µM | 52900 nM | > 100 µM | 15.4 µM | 58.9 µM | –
31 | COC(=O)c1cc(Nc2ccc(O)c3c2C(=O)c2c([N+](=O)[O-])ccc(O)c2C3=O)cc(C(=O)OC)c1 | 13700 nM | > 100 µM | 26800 nM | > 100 µM | 4.78 µM | > 100 µM | –
32 | O=C1c2ccccc2-c2cc3ccccc3c(=O)n21 | – | – | – | > 100 µM | – | > 100 µM | TGI (MDA-N): > 100 µM
